Where a name gives a salt, the structure may show the parent alone. Read-outs that look alike come from different tables or passages of the source.
Tests used:
[1] = system: carrageenin oedema of the hind paw; assay: antiphlogistic (oedema-inhibiting) effect, carrageenin paw oedema; format: in vivo, rats; conditions: for ED30: Rattus norvegicus; for Therapeutical index: carrageenin oedema
Protocol: The antiphlogistic (oedema-inhibiting) effect was tested on rats. 0.1 ml of a 1% carrageenin solution were injected into the plantar region of one of the hind paws. The volume of the paw was measured just before and 3 hours after the introduction of oedema-provoking agent by a mercury plethysmometer.

[2] = system: tetrabenazine; assay: tetrabenazine antagonism (Brodie et al.); format: in vivo; conditions: mice; for ED50: Mus musculus, oral administration; for Therapeutic index: tetrabenazine antagonism, oral
[3] = system: reserpine; assay: reserpine antagonism (Brodie et al.); format: in vivo; conditions: mice; for ED50: Mus musculus, oral administration; for Therapeutic index: reserpine antagonism, oral
[4] = in vivo; conditions: mouse
Protocol: The toxicity of the new compounds according to the invention was determined on mice after oral administration.

[5] = system: motility of mice; assay: effect on the motility of mice in a Dews apparatus (Borsy et al.); conditions: for ED50: Mus musculus, po; for Therapeutical index: motility, mice, oral
Description: The effect of the compounds on the motility of mice was orally tested in a Dews apparatus, by the method of Borsy et al. (Arch. Int. Pharmacodyn. 124 1-2 (1960). The ED50 values and the therapeutical indices are listed in Table 2.

[6] = system: hexobarbital-narcosis; assay: effect on the duration of hexobarbital-narcosis (Kaergaard); conditions: for ED50: Mus musculus, po; for Therapeutical index: hexobarbital-narcosis, mice, oral
Description: The effect of the compounds exerted on the duration of hexobarbital-narcosis was orally tested on mice by the method of Kaergaard (Arch. Int. Pharmacodyn. 2 170 (1967)).

[7] = system: acetic acid writhing; assay: analgesic effect, acetic acid writhing test; format: in vivo; conditions: mice, oral; for ED50: Mus musculus, analgesic
Protocol: The analgesic effect of the new compounds was determined on mice at oral administration by the acetic acid writhing test.

[8] = dosage inhibiting the inflammation by 30%, rats, 0.1 ml of 1% carrageenin, 3 hours, read-out: ED30

Row | SMILES | ED30 ([1]; 3 h) [mg/kg] | ED50 [2] [mg/kg] | Therapeutic index [2] | ED50 [3] [mg/kg] | Therapeutic index [3] | LD50 ([4]; mice, oral administration) [mg/kg] | ED50 [5] [mg/kg] | Therapeutical index [5] | ED50 [6] [mg/kg] | Therapeutical index [6] | ED30 [1, 8] [mg/kg] | Therapeutical index ([1]; rats) | ED50 [7] [mg/kg] | Therapeutical index [7] | LD50 ([4]; po) [mg/kg]
1 | CC(=O)Oc1ccccc1C(=O)O [Acetylsalicylic acid, reference compound] | 180 |  |  |  |  |  |  |  |  |  |  |  |  |  | 
2 | CN(C)CCC=C1c2ccccc2CCc2ccccc21 [Amitriptyline, reference compound] |  | 12 | 18.75 | 65 | 3.46 |  |  |  |  |  |  |  |  |  | 
3 | CCCCCCC1=Nc2cccnc2N(C(=O)CC)N1.Cl [Example 1, 3-n-hexyl-1-propionyl-1,2-dihydropyrido[3,2-e]-as-triazine hydrochloride] |  | 300 | 5 | 300 | 5 | 1500 | ~200 | 7.5 | ~400 | about 5 | 200 | 7.5 |  |  | 
4 | CCC(=O)N1NC(c2ccc(OC)cc2)=Nc2cccnc21 [Example 5, 3-anisyl-1-propionyl-1,2-dihydropyrido[3,2-e]-as-triazine hydrochloride] |  | 80 | 9.4 | 170 | 4.4 | 750 | ~170 | 4.4 | ~170 | 4.4 | 75 | 10 | 52 | 14.4 | 
5 | CCC(=O)N1NC(c2cc(OC)c(OC)c(OC)c2)=Nc2cccnc21.Cl [Example 6, 3-(3',4',5'-trimethoxyphenyl)-1-propionyl-1,2-dihydropyrido[3,2-e]-as-triazine hydrochloride] |  |  |  |  |  | 2000 | ~400 | about 5 | ~350 | 5.7 | ~155 | 12.9 | 215 | 9.3 | 
6 | CCC(=O)N1NC(CCc2ccccc2)=Nc2cccnc21 [Example 7, 3-phenetyl-1-propionyl-1,2-dihydropyrido-[3,2-e]-as-triazine] |  |  |  |  |  | 2000 | > 400 | under 5 | > 400 | below 5 |  |  | > 400 | below 5 | 
7 | CCCCCCC1=Nc2cccnc2N(C(=O)c2cccnc2)N1 [Example 11, 3-n-hexyl-1-nicotinoyl-1,2-dihydropyrido-[3,2-e]-as-triazinedihydrochloride] |  |  |  |  |  |  | ~200 | about 10 | 140 | 14.3 |  |  | ~400 | 5 | 2000
8 | CCCCC1C(=O)N2C(c3ccccc3)=Nc3cccnc3N2C1=O (stereo not shown) [Example 13, 2-butyl-4-phenylpyrazolo[1,2-a]pyrido[3,2-e]-as-triazine-1,3-dione] |  |  |  |  |  |  |  |  |  |  | > 400 | below 5 | > 400 | below 5 | 2000
9 | CCCCCCC1=Nc2cccnc2N(C(=O)c2ccccc2)N1.Cl [Example 18, 3-hexyl-1-benzoyl-1,2-dihydropyrido[3,2-e]-as-triazine hydrochloride] |  | 10 | 38 | 30 | 12.7 | 380 |  |  | 80 | 5 | ~70 | 5.4 | ~38 | 10 | 
10 | CCCC(C)(COC(N)=O)COC(N)=O [Meprobamate, reference compound] |  |  |  |  |  |  | 270 | 4.1 | 260 | 4.2 |  |  |  |  | 
11 | CC(=O)Nc1ccc(O)cc1 [Paracetamol, reference compound] |  |  |  |  |  |  |  |  |  |  |  |  | 180 |  | 
